The source of these data is patent publication US20220347190A1, “TREATMENT COMPRISING FXR AGONISTS” (Novartis AG, priority 2019, published 2022).

Each structure is given as a SMILES string. “Also recorded” adds a separate entry of the source. Like-named read-outs stand apart in the source and are kept apart here.

For data set [1], the system named is C57BL/6J mice on HF/NASH diet. The data set is described as follows: Drug treatment study in mice on HF/NASH diet (Example 1). The class given is in vivo. How it is done:
Studies were performed in compliance with Swiss guidelines for animal experimentation. Adult male C57BLJ6J mice were housed with ad libitum access to water and food. Mice were fed a HF/NASH diet (40 kcal % fat, 2% cholesterol, 40 kcal % carbohydrate, Research Diets, D09100301 or SSniff Special Diets, supplemented with a fructose-sucrose solution (42 g/L, 55% fructose and 45% sucrose by weight) in drinking water).
Total body fat and lean mass were analyzed by a nuclear magnetic resonance (NMR) and liver fat was measured by magnetic resonance imaging (MRI). […] Dietary intervention studies: mice fed a HF/NASH diet for 8 weeks were switched to normal diet (ND and water) for 12 weeks.
Drug treatment studies: mice exposed to HF/NASH diet for 20 weeks were treatment with LJP305 (1 mg/kg), GS-0976 (10 mg/kg) or vehicle (0.5% methylcellulose, 0.5% Tween 80 in water) p.o. once daily for 12 weeks while remaining on HF/NASH diet. At the end of the studies, blood and tissue samples were collected for analyses.
Liver samples were analyzed for collagen (Quickzyme), lipids and triglycerides (Cayman). Relative gene expression was calculated by normalizing Ct values of genes of interest against 18s (liver) or Idh3b (fat, ileum). Serum TIMP-1 (R&D Systems Inc.), PIII-NP (N-terminal procollagen III propeptide) (Cusabio Biotech Co.), α-fetoprotein (R&D Systems Inc.), leptin, and adiponectin (Meso Scale Discovery) were measured.
Paraffin-embedded tissue was stained with hematoxylin/eosin (H&E) and picrosirius red. IBA1 (ionized calcium-binding adapter molecule 1)-positive crown-like structures (Abcam, ab178846), Ly6b (BioRad, MCA771), UCP-1 (Abcam, ab109839) or ZO-1 (Invitrogen, 14-9776-80) were stained (Ventana Discovery XT) followed by digital (Aperio ScanScope XT, Leica Biosystems) and automated image analysis (HALO, Indica Labs).

Data set [2] deals with NASH patients. The following applies: cited from earlier work.
A further data set relates to healthy volunteers. The following applies: cited from earlier work.
For data set [3], the system named is NASH patients.
In data set [4] the test system is patients with biopsy-proven NASH and fibrosis stages 2-3. From the text: Prespecified endpoints assessed at week 12 included overall safety and changes in alanine aminotransferase (ALT), hepatic fat fraction (HFF), gamma glutamyl transferase (GGT), and body weight.
Data set [5] relates to NASH patients. To be noted: cited from earlier work. The source holds these as a separate data set.
[6] abbreviates: GS-0976 10 mg/kg p.o. once daily for 12 weeks, HF/NASH diet.

As for `COc1ccccc1[C@H](Cn1c(=O)n(C(C)(C)C(=O)O)c(=O)c2c(C)c(-c3ncco3)sc21)OC1CCOCC1` [GS-0976, 2-[1-{(2R)-2-(2-methoxyphenyl)-2-[(oxan-4-yl)oxy]ethyl}-5-methyl-6-(1,3-oxazol-2-yl)-2,4-dioxo-1,4-dihydrothieno[2,3-d]pyrimidin-3(2H)-yl]-2-methylpropanoic acid], in data set [1] (setting [6]), the “elevation of circulating leptin levels vs vehicle” value amounted to 2 fold; the “increase in total fat mass vs vehicle” value amounted to 27%; the “increase in visceral and subcutaneous fat vs vehicle” value was determined as 30%. Further, the “mean body weight above vehicle-treated mice” value in data set [1] (GS-0976 10 mg/kg p.o. once daily, end of 12-week treatment, HF/NASH diet) turned out to be 7%. For the same compound, in data set [1] (GS-0976 10 mg/kg, liver transcriptome), the “liver gene expression (lipid metabolism genes)” value is listed as “induced multiple genes known to play roles in lipid metabolism”. For the same compound, in data set [1] (NASH mice, 12-week treatment), the “effect on blood triglycerides and peripheral obesity” value was “elevated blood triglycerides and peripheral obesity”. Moreover, the “body weight effect (in words)” value in data set [1] (chronic treatment, HF/NASH diet, vs vehicle) is recorded as “significant increase in body weight”. For the same compound, in data set [1] (p.o. once daily for 12 weeks after 20 weeks of HF/NASH diet), the “effect of therapeutic treatment on established NASH with fibrosis” value is reported as “resolved established NASH with fibrosis”. The “plasma triglycerides (TG)” value in the data set on NASH patients [2] (NASH patients) is listed as “Hypertriglyceridemia; also recorded: elevated plasma triglycerides”. Moreover, in the data set with NASH patients [2] (NASH subjects), the “steatosis and MRI-PDFF in NASH subjects” value was “improve steatosis and improvements in MRI-PDFF”. The “liver fat, serum TIMP-1 and liver injury” value in the data set with NASH patients [2] (clinical phase 2 NASH studies, 12 weeks) is “reductions in liver fat, serum TIMP-1, and liver injury”.

Regarding `COc1cc(C(=O)N2CCC3(CC2)CC(=O)c2cc(-c4cncc(C(=O)O)c4)ccc2O3)cc2c1c(C)cn2C1CC1` [MK-4704], the plasma triglycerides entry with healthy volunteers is recorded as “Hypertriglyceridemia”.

Take `O=C(O)c1cc(F)c2nc(N3C4CCC3CC(OCc3c(-c5ccccc5OC(F)(F)F)noc3C3CC3)C4)sc2c1` [Tropifexor, 2-[(1R,3r,5S)-3-({5-cyclopropyl-3-[2-(trifluoromethoxy)phenyl]-1,2-oxazol-4-yl}methoxy)-8-azabicyclo[3.2.1]octan-8-yl]-4-fluoro-1,3-benzothiazole-6-carboxylic acid]: the “efficacy based on biomarkers at Week 12” value with NASH patients [3] (60 and 90 μg) is “anti-inflammatory and anti-steatotic efficacy”. In addition, in the data set on NASH patients [3] (up to 90 μg daily), the tolerability entry is reported as “generally well tolerated up to 90 μg daily without safety signals”. For the same compound, the “frequency of serious adverse events” value in data set [4] (140 μg and 200 μg vs placebo) is “low and comparable across groups”. Moreover, the “low density lipoprotein-cholesterol (LDL-C)” value in data set [4] (140 μg and 200 μg, 12 weeks) is reported as “dose-related increase”. Further, the “treatment discontinuation rate due to pruritus” value in data set [4] (Tropifexor 140 μg) is listed as 2%. Moreover, in data set [4] (Tropifexor 140 μg once daily), the “ALT, LS mean absolute change (SE) from baseline to Week 12” value was −20.1 (4.57) U/L; the “Body weight, LS mean absolute change (SE) from baseline to Week 12” value was −2.46 (0.38) kg; the “GGT, LS mean absolute change (SE) from baseline to Week 12” value is −39.2 (3.70) U/L. In addition, in data set [4] (Tropifexor 200 μg), the “pre-specified endpoints at week 12” value is recorded as “Pre-specified endpoints were met” and the “treatment discontinuation rate due to pruritus” value was found to be 6%. In addition, in data set [4] (Tropifexor 200 μg once daily), the “ALT, LS mean absolute change (SE) from baseline to Week 12” value is on record as −23.6 (4.48) U/L; the “Body weight, LS mean absolute change (SE) from baseline to Week 12” value is listed as −3.20 (0.37) kg; the “GGT, LS mean absolute change (SE) from baseline to Week 12” value is listed as −40.9 (3.62) U/L. Further, the “share of patients with pruritus whose events were of mild (Grade 1) severity” value in data set [4] (both Tropifexor groups (140 μg and 200 μg)) is over 60%. In addition, the “ALT, HFF and body weight after 12 weeks (in words)” value in data set [4] (higher doses (140 μg and 200 μg)) was “robust and dose-dependent decreases”.

In the case of `CC[C@H]1[C@@H](O)[C@@H]2[C@H](CC[C@]3(C)[C@@H]([C@H](C)CCC(=O)O)CC[C@@H]23)[C@@]2(C)CC[C@@H](O)C[C@@H]12` [obeticholic acid, 6α-ethyl-chenodeoxycholic acid], the “adverse effects of long term administration” value with NASH patients [5] was “associated with pruritus and lipid abnormalities”.
